PubChem BioAssay AID1053155 (Broad Institute, 2014)

Target: Low-density lipoprotein receptor (Homo sapiens) (UniProt P01130)
Experiment: LDLR protein level induction, dose response, orthogonal assay for Trib1 inducer project, cell-based, HepG2, ELISA, plate reader, cherry-pick (AID 1053155)
Conditions: 24 h; for fold induction: measured here: max LDLR protein fold induction, stronger effect = higher value

Sequence of Low-density lipoprotein receptor (Homo sapiens) (P01130 whole entry, looked up): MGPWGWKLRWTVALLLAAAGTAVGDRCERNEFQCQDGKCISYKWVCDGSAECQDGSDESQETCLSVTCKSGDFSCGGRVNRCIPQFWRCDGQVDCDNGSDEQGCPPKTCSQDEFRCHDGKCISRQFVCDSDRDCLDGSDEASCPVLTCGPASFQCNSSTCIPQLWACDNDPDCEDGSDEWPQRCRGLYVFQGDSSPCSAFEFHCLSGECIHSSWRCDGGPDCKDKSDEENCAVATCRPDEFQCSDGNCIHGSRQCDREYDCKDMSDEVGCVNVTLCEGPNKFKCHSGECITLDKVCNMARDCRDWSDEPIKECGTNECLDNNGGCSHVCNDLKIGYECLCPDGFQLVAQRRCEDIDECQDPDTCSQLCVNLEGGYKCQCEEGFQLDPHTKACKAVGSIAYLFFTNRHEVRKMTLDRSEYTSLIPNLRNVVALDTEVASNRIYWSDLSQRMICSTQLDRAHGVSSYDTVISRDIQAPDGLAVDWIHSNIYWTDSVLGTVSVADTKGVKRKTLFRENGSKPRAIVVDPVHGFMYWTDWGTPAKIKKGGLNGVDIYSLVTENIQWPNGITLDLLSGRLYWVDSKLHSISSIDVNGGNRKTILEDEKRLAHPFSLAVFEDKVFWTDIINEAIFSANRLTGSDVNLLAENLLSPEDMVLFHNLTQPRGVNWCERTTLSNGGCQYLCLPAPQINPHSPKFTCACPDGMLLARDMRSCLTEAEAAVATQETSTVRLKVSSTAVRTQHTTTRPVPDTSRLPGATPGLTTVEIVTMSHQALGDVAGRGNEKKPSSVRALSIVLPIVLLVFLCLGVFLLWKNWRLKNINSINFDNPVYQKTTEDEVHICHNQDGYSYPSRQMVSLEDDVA

Structure (SMILES) | AC50 | fold induction
CN1C(=O)c2cc(NC(=O)c3ccc(C(F)(F)F)cc3)ccc2OC[C@@H]2O[C@@H](CC(=O)NC3Cc4ccccc4C3)CC[C@@H]21 | 18 µM | 3.3
CN1C(=O)c2cc(NC(=O)c3ccc(C(F)(F)F)cc3)ccc2OC[C@@H]2O[C@H](CC(=O)NC3Cc4ccccc4C3)CC[C@@H]21 | 0.55 µM | 4.6
